{"source": "patent US20080207667A1", "about": "(priority 2007, published 2008)", "key": {"[1]": {"test_system": "subject suffering from a respiratory disorder (former smoker)", "test": "Spirometry pre and post treatment with nebulized nalbuphine (Example 1)", "format": "in vivo, human", "details": "for FEF (25–75%) % of Prediction / FEF (25–75%) (L/S) Actual / FEV1 % of Prediction / FEV1 (L) Actual / FEV1/FVC % of Prediction / FEV1/FVC (%) Actual / FVC % of Prediction / FVC (L) Actual / PEF % of Prediction / PEF (L/S) Actual / FEF (25–75%) % Change / FEV1 % Change / FEV1/FVC % Change / FVC % Change / PEF % Change: post nebulized nalbuphine", "text": "This example illustrates the use of nalbuphine to treat a subject suffering from a respiratory disorder. The subject was a former smoker. Spirometry measurements were taken pre and post treatment with nebulized nalbuphine."}, "asthmatic": {"test_system": "asthmatic", "test": "Spirometry pre and post treatment with nebulized nalbuphine (Example 2)", "format": "in vivo, human", "experimental": "In this example, an asthmatic taking advair diskus for treatment of asthma was treated with nalbuphine according to the present method. Spirometry measurements were taken pre and post treatment with nebulized nalbuphine."}, "smoker": {"test_system": "smoker", "test": "Spirometry pre and post treatment with nebulized nalbuphine (Example 3)", "format": "in vivo, human", "text": "Spirometry measurements were taken pre and post treatment with nebulized nalbuphine."}, "[2]": {"details": "nalbuphine and its salts; cited from earlier work"}, "[3]": {"details": "Treatment #1, vs pre-nalbuphine"}, "[4]": {"details": "Treatment #1, vs pre-nalbuphine, listed as nalbuphine"}, "[5]": {"details": "Treatment #2, vs pre-nalbuphine"}, "[6]": {"details": "Treatment #3, vs pre-nalbuphine"}, "[7]": {"details": "asthmatic taking advair diskus, post nebulized nalbuphine"}, "[8]": {"details": "post nebulized nalbuphine vs pre-nalbuphine"}, "[9]": {"details": "smoker treated with combivent and spiriva, post nebulized nalbuphine"}}, "data": [{"smiles": "Oc1ccc2c3c1O[C@H]1[C@@H](O)CC[C@@]4(O)[C@@H](C2)N(CC2CCC2)CC[C@]314", "note": "[Nalbuphine, nalbuphine]", "values": [{"measurement": "FEF (25–75%) % of Prediction", "setting": "[1]; Treatment #1", "value": 130, "unit": "%"}, {"measurement": "FEF (25–75%) (L/S) Actual", "setting": "[1]; Treatment #1", "value": 5.043, "unit": "L/S"}, {"measurement": "FEV1 % of Prediction", "setting": "[1]; Treatment #1", "value": 139, "unit": "%"}, {"measurement": "FEV1 (L) Actual", "setting": "[1]; Treatment #1", "value": 4.223, "unit": "L"}, {"measurement": "FEV1/FVC % of Prediction", "setting": "[1]; Treatment #1", "value": 106, "unit": "%"}, {"measurement": "FEV1/FVC (%) Actual", "setting": "[1]; Treatment #1", "value": 84, "unit": "%"}, {"measurement": "FVC % of Prediction", "setting": "[1]; Treatment #1", "value": 133, "unit": "%"}, {"measurement": "FVC (L) Actual", "setting": "[1]; Treatment #1", "value": 5.035, "unit": "L"}, {"measurement": "PEF % of Prediction", "setting": "[1]; Treatment #1", "value": 93, "unit": "%"}, {"measurement": "PEF (L/S) Actual", "setting": "[1]; Treatment #1", "value": 5.98, "unit": "L/S"}, {"measurement": "FEF (25–75%) % Change", "setting": "[1]; [3]", "value": 37.50, "unit": "%"}, {"measurement": "FEV1 % Change", "setting": "[1]; [3]", "value": 46, "unit": "%"}, {"measurement": "FEV1/FVC % Change", "setting": "[1]; [3]", "value": 2, "unit": "%"}, {"measurement": "FVC % Change", "setting": "[1]; [3]", "value": 44.0, "unit": "%"}, {"measurement": "PEF % Change", "setting": "[1]; [3]", "value": "−6.4", "unit": "%"}, {"measurement": "FEV1 % Change", "setting": "[1]; [4]", "value": "forty six"}, {"measurement": "FVC % Change", "setting": "[1]; [4]", "value": "forty-four"}, {"measurement": "FEF (25–75%) % of Prediction", "setting": "[1]; Treatment #2", "value": 137, "unit": "%"}, {"measurement": "FEF (25–75%) (L/S) Actual", "setting": "[1]; Treatment #2", "value": 5.327, "unit": "L/S"}, {"measurement": "FEV1 % of Prediction", "setting": "[1]; Treatment #2", "value": 134, "unit": "%"}, {"measurement": "FEV1 (L) Actual", "setting": "[1]; Treatment #2", "value": 4.259, "unit": "L"}, {"measurement": "FEV1/FVC % of Prediction", "setting": "[1]; Treatment #2", "value": 107, "unit": "%"}, {"measurement": "FEV1/FVC (%) Actual", "setting": "[1]; Treatment #2", "value": 84, "unit": "%"}, {"measurement": "FVC % of Prediction", "setting": "[1]; Treatment #2", "value": 127, "unit": "%"}, {"measurement": "FVC (L) Actual", "setting": "[1]; Treatment #2", "value": 4.827, "unit": "L"}, {"measurement": "PEF % of Prediction", "setting": "[1]; Treatment #2", "value": 113, "unit": "%"}, {"measurement": "PEF (L/S) Actual", "setting": "[1]; Treatment #2", "value": 7.297, "unit": "L/S"}, {"measurement": "FEF (25–75%) % Change", "setting": "[1]; [5]", "value": 45, "unit": "%"}, {"measurement": "FEV1 % Change", "setting": "[1]; [5]", "value": 40, "unit": "%"}, {"measurement": "FEV1/FVC % Change", "setting": "[1]; [5]", "value": 2, "unit": "%"}, {"measurement": "FVC % Change", "setting": "[1]; [5]", "value": 38, "unit": "%"}, {"measurement": "PEF % Change", "setting": "[1]; [5]", "value": 14, "unit": "%"}, {"measurement": "FEF (25–75%) % of Prediction", "setting": "[1]; Treatment #3", "value": 129, "unit": "%"}, {"measurement": "FEF (25–75%) (L/S) Actual", "setting": "[1]; Treatment #3", "value": 4.998, "unit": "L/S"}, {"measurement": "FEV1 % of Prediction", "setting": "[1]; Treatment #3", "value": 136, "unit": "%"}, {"measurement": "FEV1 (L) Actual", "setting": "[1]; Treatment #3", "value": 4.11, "unit": "L"}, {"measurement": "FEV1/FVC % of Prediction", "setting": "[1]; Treatment #3", "value": 110, "unit": "%"}, {"measurement": "FEV1/FVC (%) Actual", "setting": "[1]; Treatment #3", "value": 87, "unit": "%"}, {"measurement": "FVC % of Prediction", "setting": "[1]; Treatment #3", "value": 125, "unit": "%"}, {"measurement": "FVC (L) Actual", "setting": "[1]; Treatment #3", "value": 4.733, "unit": "L"}, {"measurement": "PEF % of Prediction", "setting": "[1]; Treatment #3", "value": 112, "unit": "%"}, {"measurement": "PEF (L/S) Actual", "setting": "[1]; Treatment #3", "value": 7.225, "unit": "L/S"}, {"measurement": "FEF (25–75%) % Change", "setting": "[1]; [6]", "value": 36, "unit": "%"}, {"measurement": "FEV1 % Change", "setting": "[1]; [6]", "value": 42, "unit": "%"}, {"measurement": "FEV1/FVC % Change", "setting": "[1]; [6]", "value": 6, "unit": "%"}, {"measurement": "FVC % Change", "setting": "[1]; [6]", "value": 35, "unit": "%"}, {"measurement": "PEF % Change", "setting": "[1]; [6]", "value": 13, "unit": "%"}, {"measurement": "lung capacity and airflow after treatment", "setting": "[1]; summary in words", "value": "marked improvement in lung capacity and airflow"}, {"measurement": "FEV1 % of Prediction", "setting": "asthmatic; [7]", "value": 35, "unit": "%"}, {"measurement": "FEV1 (L) Actual", "setting": "asthmatic; [7]", "value": 0.555, "unit": "L"}, {"measurement": "FVC % of Prediction", "setting": "asthmatic; [7]", "value": 54, "unit": "%"}, {"measurement": "FVC (L) Actual", "setting": "asthmatic; [7]", "value": 1.155, "unit": "L"}, {"measurement": "FEV1 % Change", "setting": "asthmatic; [8]", "value": 48, "unit": "%"}, {"measurement": "FVC % Change", "setting": "asthmatic; [8]", "value": 35, "unit": "%"}, {"measurement": "FVC and FEV1 after treatment", "setting": "asthmatic; summary in words", "value": "dramatic increase in FVC and FEV1"}, {"measurement": "FEV1 % Change", "setting": "smoker; [8]", "value": 39, "unit": "%"}, {"measurement": "FVC % Change", "setting": "smoker; [8]", "value": 34, "unit": "%"}, {"measurement": "FEV1 % of Prediction", "setting": "smoker; [9]", "value": 84, "unit": "%"}, {"measurement": "FEV1 (L) Actual", "setting": "smoker; [9]", "value": 2.745, "unit": "L"}, {"measurement": "FVC % of Prediction", "setting": "smoker; [9]", "value": 78, "unit": "%"}, {"measurement": "FVC (L) Actual", "setting": "smoker; [9]", "value": 3.285, "unit": "L"}, {"measurement": "lung capacity and airflow after treatment", "setting": "smoker; summary in words", "value": "marked improvement in lung capacity and airflow"}, {"measurement": "solubility in water", "setting": "[2]", "value": "sparingly soluble in water"}]}]}
